Key:
[1] = test system: carbon tetrachloride-induced liver injury; details: in vivo; cited from earlier work
NASH model mice = assay: NASH mouse model, histopathological scoring of liver sections; assay type: in vivo; details: 30 mg/kg daily; for Hepatocyte ballooning ± SE: score 0-2; for Portal inflammation ± SE / Lobular Inflammation ± SE / Steatosis ± SE: score 0-3; for Fibrosis Stage ± SE: score 0-4; for NAFLD activity score (NAS) ± SE: score 0-8
Procedure: Four separate groups of mice were given either 0.5% methylcellulose (as Vehicle) or AZD3355 at 10 mg/kg (low dose) body weight of mice or 30 mg/kg (high dose) body weight of mice by twice daily (BID (5 days/week)) and OCA at 30 mg/kg body weight of mice by daily (QD (5 days/week)) through oral route for up to next 12 weeks (week 13 to week 24). Them last group of mice were not given any drug or vehicle treatment, as No Tx—24 weeks and maintained in parallel with treatment/vehicle groups. Usually all doses were given at early morning and the second daily dose of AZD3355 at evening (10 hours of intervals). All animals were closely monitored the health conditions and behavior.
A piece of tissue from large liver lobe was fixed in 10% Formalin Buffered (Astral Diagnostics Incorporated NJ) embedded in paraffin and microtome sectioning were performed. Slides containing tissue sections were baked at 60° C. for 1 hour and re-hydrated through xylene followed by graded ethanol (100%, 95%, 85% and 70%) into distilled water and processed in either Picrosirius red/Fast green or hematoxylin and eosin staining.
A total of 2 sections/animal were stained with H&E staining performed by standard protocol.
Steatosis, hepatocyte ballooning, lobular inflammation, portal inflammation and fibrosis of picroserious red/fast green and H&E stained liver section were scored according to the NASH Clinical Research Network (NASH CRN) scoring system in a blinded fashion by an expert hepato-pathologist in Icahn School of Medicine at Mount Sinai. NAFLD activity score (NAS) was calculated according to Brunt criteria and range from 0-8. NAS was calculated by the sum of scores of steatosis (0-3), hepatocyte ballooning (0-2) and lobular inflammation (0-3). NAS score of >5.0 strongly correlated with “definite-NASH” whereas <3 correlated with “not-NASH”. Fibrosis (0-4) or portal inflammation (0-3) scores were assessed separately and not included in NAS.

LX-2 cells [2] = assay: Fibrogenic gene expression by RT-qPCR; assay type: cell-based, human; details: 48 and 72 hours
Procedure: The following fibrogenic gene expressions were quantified by RT-qPCR: • 1. Collagen1α1 (Col1α1); • 2. Alpha Smooth Muscle Actin (αSMA); • 3. Beta PDGF receptor (β-PDGFR); • 4. Transforming growth factor-β receptor1 (TGFβ-R1); • 5. Tissue inhibitor of metalloproteinase—1 (TIMP1); • 6. Tissue inhibitor of metalloproteinase—2 (TIMP2); and • 7. Matrix Metalloproteinase 2 (MMP2).
The kinase inhibitor sorafenib (7.5 μM concentration) was used as positive control and run in parallel. 150,000 LX-2 cells or 200,000 phHSCs per well were plated on 6-well plate dish. Cells were starved overnight in DMEM supplemented with 0.1% BSA (without antibiotic). Cells were then incubated with either AZD3355 or sorafenib at the indicated concentration and duration. Cells were harvested and total RNA was extracted using RNeasy Mini Kit (Qiagen, CA). 0.5 μg of total RNA was used for reverse transcription with ‘RNA to cDNA EcoDry Premix (Double Primed) Kit’ (Clontech, CA). Expression of fibrogenic genes were measured by qPCR using custom designed primers (Sigma-Aldrich, MO) and iQ SYBR Green Supermix (Bio-Rad, CA) on a LightCycler 480 II (Roche Diagnostics Corporation, IN) instrument. Glyceraldehyde-3-phosphate dehydrogenase (GAPDH), […] (RPII), α-tubulin and β-actin genes were tested to determine the best fit for housekeeping gene of the study. […]

LX-2 cells [3] = assay: Fibrogenic protein expression by western blot and densitometry from cell lysate; assay type: cell-based, human; details: LX2 cells, 48 or 72 hours, 30 nM or 100 nM AZD3355 or sorafenib
Procedure: (§1) Western blot and RT-qPCR experiments were run in parallel. 150,000 LX-2 cells or 200,000 phHSCs per well were plated on a 6-well plate dish. Cells were starved overnight in DMEM supplemented with 0.1% BSA (without antibiotic). Cells were then incubated with either AZD3355 or sorafenib at the indicated concentration and duration. Cells were harvested and lysed using RIPA buffer (50 mM Tris-HC1 pH8.0, 150 mM NaCl, 1% IGEPAL, 0.5% sodium deoxycholate and 0.1% SDS) along with Pierce Protease Inhibitor Mini Tablets, EDTA-Free (ThermoScientific, IL). Total protein was measured by Bradford colorimetric assay using Protein Assay Dye Reagent Concentrate (Bio-Rad, CA). […] After hybridized with HRP conjugated secondary antibody (either Goat anti-rabbit HRP (Jackson ImmunoResearch Laboratories, PA) or anti-mouse IgG-HRP (Cell Signaling Technology, MA) the membrane was treated with Immobilon Western Chemiluminescent HRP substrate (Millipore, MA) and the signals were captured with Amersham Imager 6000 (GE Healthcare, PA). 210 kD of Col1α1, 72 kD of MMP2 and 42 kD of α-SMA bands were recognized by respective antibody. 37 kD band of GAPDH was probed as loading control. For densitometric measurement of the protein bands, images were exported and analyzed using ImageJ 1.50 f software and bands were normalized to the loading control, GAPDH.

phHSCs = assay: as above; assay type: cell-based, human; details: 48 or 72 hours
Procedure: as §1

human liver slices = assay: Liver slice assay, histopathology and H&E staining; assay type: cell-based; details: 24 hours
Procedure: Ten human liver pieces were collected from the Mount Sinai biorepository. The samples were prepared by coring the liver with 8 mm cylindrical coring tools. The liver cores were kept in ice cold WE medium, with GlutaMAX supplemental. A liver core was then mounted on a specimen plate with cyanoacrylate adhesive. Liver slices (approximately 200 μm in thickness) were placed in ice cold Krebs-Henesleit buffer in the presence of carbogen gas. There was then a 1 hour pre-incubation in WE GlutaMAX media with gentamicin in 95% O2 and 5% CO2 at 37° C. in a humidified rocker chamber to restore ATP levels.
The liver slices were then cultured in WE GlutaMAX media with gentamicin in 95% O2 and 5% CO2 at 37° C. in a humidified rocker chamber with slow 70 rpm rocking in the presence of AZD3355 in the amounts of 250 nM, 500 nM, 1000 nM, or 2000 nM, or sorafenib at 1000 nM., or control vehicle (saline water).
After 24 hours, the tissue slices were harvested for either RNA isolation and quantitative PCR for measurements of Col1α1, TNFα, and IL-6 expression, or for histopathology and hematoxylin and eosin (H&E) staining as described in Example 3.

## NCC(CC(=O)O)c1ccc(Cl)cc1 (stereo not shown) [baclofen]
[1]
  liver injury due to carbon tetrachloride: attenuates injury

## CC[C@H]1[C@@H](O)[C@@H]2[C@H](CC[C@]3(C)[C@@H]([C@H](C)CCC(=O)O)CC[C@@H]23)[C@@]2(C)CC[C@@H](O)C[C@@H]12 [OCA, Obeticholic acid, reference compound]
NASH model mice; ♀ Mice, vehicle 1.2 ± 0.1
  Hepatocyte ballooning ± SE: 1.1 ± 0.2
NASH model mice; ♀ Mice, vehicle 1.6 ± 0.1
  Portal inflammation ± SE: 1.0 ± 0.2
NASH model mice; ♀ Mice, vehicle 2.3 ± 0.1
  Lobular Inflammation ± SE: 1.6 ± 0.1
NASH model mice; ♀ Mice, vehicle 2.5 ± 0.1
  Steatosis ± SE: 2.0 ± 0.2
NASH model mice; ♀ Mice, vehicle 3.0 ± 0.1
  Fibrosis Stage ± SE: 2.2 ± 0.1
NASH model mice; ♀ Mice, vehicle 6.1 ± 0.4
  NAFLD activity score (NAS) ± SE: 4.7 ± 0.6
NASH model mice; ♀ Mice, vehicle 1.8 ± 0.2
  Steatohepatitis Grade ± SE: 1.4 ± 0.3
NASH model mice; ♂ Mice, vehicle 1.7 ± 0.1
  Hepatocyte ballooning ± SE: 1.0 ± 0.2
NASH model mice; ♂ Mice, vehicle 2.0 ± 0.1
  Portal inflammation ± SE: 1.3 ± 0.2
NASH model mice; ♂ Mice, vehicle 2.7 ± 0.1
  Steatosis ± SE: 2.0 ± 0.2
NASH model mice; ♂ Mice, vehicle 2.8 ± 0.1
  Lobular Inflammation ± SE: 1.9 ± 0.2
NASH model mice; ♂ Mice, vehicle 3.3 ± 0.1
  Fibrosis Stage ± SE: 2.9 ± 0.1
NASH model mice; ♂ Mice, vehicle 7.2 ± 0.3
  NAFLD activity score (NAS) ± SE: 5.0 ± 0.6
NASH model mice; ♂ Mice, vehicle 2.6 ± 0.2
  Steatohepatitis Grade ± SE: 1.5 ± 0.3

## CNC(=O)c1cc(Oc2ccc(NC(=O)Nc3ccc(Cl)c(C(F)(F)F)c3)cc2)ccn1 [Sorafenib, sorafenib]
LX-2 cells [2]
  gene expression of pro-fibrogenic genes Col1α1, αSMA, βPDGF-R, TGFβ-R1, TIMP1, TIMP2, MMP2: downregulated
LX-2 cells [3]
  protein expression of Col1α1 (western blot): no change
phHSCs
  protein expression of Col1α1 (western blot): no change
Human liver slices
  liver cells viability (H&E): did not change

— patent publication US20250082654A1, “AZD3355 (LESOGABERAN) FOR TREATMENT AND PREVENTION OF NONALCOHOLIC STEATOHEPATITIS (NASH), LIVER FIBROSIS, AND OTHER LIVER CONDITIONS” (Icahn School of Medicine at Mount Sinai, priority 2018, published 2025)
